This is an account of results in patent US5607922A, “1,5-anhydrohexitol nucleoside analogues” (Stichting Rega VZW, priority 1992, dated 1997).

Series [1] has as its system herpes simplex virus 2 (HSV-2) (G). Briefly: microbe, parasite or virus in culture. Format: cell-based. To be noted: Human alphaherpesvirus 2, E6SM.
For series [2], the system named is vaccinia virus (VV). Kind of series: microbe, parasite or virus in culture. It counts as cell-based. As to conditions: Orthopoxvirus vaccinia, E6SM.
Series [3] has as its system herpes simplex virus type 1 (HSV-1) (KOS). Briefly: microbe, parasite or virus in culture. It counts as cell-based. To be noted: Human alphaherpesvirus 1, E6SM.
Series [4] in a line: in vitro. To be noted: human, e6 sm cells, Minimum cytotoxic concentration.
For series [5], the system named is herpes viruses. As to conditions: in words; literature; cited from earlier work.
Series [6] concerns Vesicular stomatitis virus. Briefly: microbe, parasite or virus in culture. Format: cell-based. To be noted: E6SM, read-out: Minimum inhibitory concentration Vesicular stomatitis virus.
Series [7] relates to herpes simplex (1 and 2). Kind of series: Anti-herpes simplex (1 and 2) activity, statement in words. Format: cell-based, herpes simplex virus.
The mark [8] stands for this setting: Table I, E6 SM cells, required to reduce virus-induced cytopathogenesis by 50%, read-out: Minimum inhibiting concentration ED50 HSV-2 (G).
The mark [9] stands for this setting: read-out: Minimum inhibiting concentration ED50 VV.
Where [10] appears, read: Table I, E6 SM cells, required to reduce virus-induced cytopathogenesis by 50%, read-out: Minimum inhibiting concentration ED50 HSV-1 (KOS).
Where [11] appears, read: read-out: Minimum inhibitory concentration Herpes simplex virus-2 (G).
Setting [12] is: read-out: Minimum inhibitory concentration Vaccinia virus.
Setting [13] is: read-out: Minimum inhibitory concentration Herpes simplex virus-1 (KOS).
[14] abbreviates: Table III, required to cause a microscopically detectable alteration of normal cell morphology.

Converted amounts (≈) assume the structure as drawn. Like-named read-outs stand apart in the source and are kept apart here. Bounds are passed on as bounds.

Take `Cc1cn([C@@H]2CO[C@H](CO)[C@@H](O)C2)c(=O)[nH]c1=O` [Compound 17, 1,5-Anhydro-2,3-dideoxy2-(thymin-1-yl)-D-arabinohexitol]: the results for the EC50 in series [1] (setting [8]), in series [2] (setting [9]) and in series [3] (setting [10]) were 150 µg/mL (≈ 585 µM), > 200 µg/mL and 40 µg/mL (≈ 156 µM), respectively. Further, in series [4], the MCC was > 400 µg/mL.
`Nc1ncnc2c1ncn2[C@@H]1CO[C@H](CO)[C@@H](O)C1` [Compound 10, 1,5-Anhydro-2-(adenin-9-yl) 2,3-dideoxy-D-arabinohexitol]: the EC50 worked out at 7 µg/mL (≈ 26.4 µM) in series [1] (setting [8]), 20 µg/mL (≈ 75.4 µM) in series [2] (setting [9]) and 7 µg/mL (≈ 26.4 µM) in series [3] (setting [10]). In addition, the MCC in series [4] was > 400 µg/mL.
For the compound `Nc1ccn([C@@H]2CO[C@H](CO)[C@@H](O)C2)c(=O)n1` [Compound 20, 1,5-Anhydro-2-(cytosin-1-yl)-2,3-dideoxy-D-arabinohexitol], the EC50 came out at 0.04 µg/mL (≈ 0.166 µM) in series [1] (setting [8]), 0.7 µg/mL (≈ 2.9 µM) in series [2] (setting [9]) and 0.7 µg/mL (≈ 2.9 µM) in series [3] (setting [10]). Further, the MCC in series [4] is > 400 µg/mL.
`O=c1[nH]c(=O)n([C@H]2C[C@H](O)[C@@H](CO)O2)cc1/C=C/Br` [BVDU, E-5-(2-bromovinyl)-2'-deoxyuridine]: the EC50 in series [1] (setting [8]) is 10 µg/mL (≈ 30 µM); in series [1] (setting [11]), > 200 µg/mL; in series [2] (setting [9]), 0.2 µg/mL (≈ 0.6 µM); in series [2] (setting [12]) it was 0.7 µg/mL (≈ 2.1 µM); in series [6], > 200 µg/mL; in series [3] (setting [13]) it was 0.004 µg/mL (≈ 0.012 µM). In addition, in series [5], the “anti-viral activity against herpes viruses” value was “dependent on a virus-specific thymidine kinase”. The MCC is > 400 µg/mL in series [4] and ≥ 200 µg/mL in series [4] (setting [14]).
For `O=c1[nH]c(=O)n([C@@H]2CO[C@H](CO)[C@@H](O)C2)cc1I` [Compound 18, 1,5-Anhydro-2,3-dideoxy-2-(5-iodouracil-1-yl)-D-arabino-hexitol], the EC50 in series [1] (setting [8]) came to 0.07 µg/mL (≈ 0.19 µM); in series [2] (setting [9]), 150 µg/mL (≈ 407 µM); in series [3] (setting [10]) it was 0.07 µg/mL (≈ 0.19 µM). The “anti-herpes simplex (1 and 2) activity” value in series [7] is “especially advantageous anti-herpes simplex (1 and 2) activity”. Moreover, the MCC in series [4] was > 400 µg/mL.
Turning to `NC(=O)c1ncn(C2O[C@H](CO)[C@@H](O)[C@H]2O)n1` (stereo partly drawn) [Ribavirin, 1-ribofuranosyl-3-carbamoyl-1,2,4-triazol], the EC50 in series [1] (setting [8]) was 70 µg/mL (≈ 287 µM); in series [1] (setting [11]), > 400 µg/mL; in series [2] (setting [12]), 70 µg/mL (≈ 287 µM); in series [6], 20 µg/mL (≈ 81.9 µM); in series [3] (setting [10]), 70 µg/mL (≈ 287 µM); in series [3] (setting [13]) it was 200 µg/mL (≈ 819 µM). In addition, the MCC in series [4] and in series [4] (setting [14]) was > 400 µg/mL each time.
Take `Nc1nc(O)c2ncn([C@@H]3CO[C@H](CO)[C@@H](O)C3)c2n1` [Compound 13, 1,5-Anhydro-2-(guanin-9-yl)-2,3-dideoxy-D-arabinohexitol]: the values for the EC50 in series [1] (setting [8]), in series [2] (setting [9]) and in series [3] (setting [10]) were 0.1 µg/mL (≈ 0.356 µM), 2 µg/mL (≈ 7.11 µM) and 0.2 µg/mL (≈ 0.711 µM), respectively. The MCC in series [4] was > 400 µg/mL.
In the case of `Nc1ncnc2c1ncn2C[C@H](O)CO` [(S)-DHPA, (S)-9-(2,3-dihydroxypropyl)-adenine], the EC50 in series [1] (setting [8]) is 300 µg/mL (≈ 1430 µM); in series [1] (setting [11]), > 200 µg/mL; in series [2] (setting [12]), 20 µg/mL (≈ 95.6 µM); in series [6] it was 20 µg/mL (≈ 95.6 µM); in series [3] (setting [10]) it was 70 µg/mL (≈ 335 µM); in series [3] (setting [13]), > 200 µg/mL. Moreover, the MCC in series [4] is > 400 µg/mL; in series [4] (setting [14]), ≥ 200 µg/mL.
As to `Nc1nccc2c1ncn2[C@@H]1C[C@H](CO)[C@@H](O)[C@H]1O` (relative stereo) [C-c^3 Ado, carbocyl 3-deaza adenosine], the EC50 in series [1] (setting [8]) is 40 µg/mL (≈ 151 µM); in series [1] (setting [11]), > 200 µg/mL; in series [2] (setting [9]) it was 0.7 µg/mL (≈ 2.65 µM); in series [2] (setting [12]) it was 0.2 µg/mL (≈ 0.757 µM); in series [6] it was 0.2 µg/mL (≈ 0.757 µM); in series [3] (setting [10]), > 400 µg/mL. The EC50 in series [3] (setting [13]) is > 200 µg/mL. Moreover, the MCC is > 400 µg/mL in series [4] and ≥ 200 µg/mL in series [4] (setting [14]).
For `CCc1cn([C@@H]2CO[C@H](CO)[C@@H](O)C2)c(=O)[nH]c1=O` [Compound 23, 1,5-Anhydro-2,3-dideoxy-2-(5-ethyluracil-1-yl)-D-arabinohexitol], the EC50 in series [1] (setting [11]) was 0.2 µg/mL (≈ 0.74 µM); in series [2] (setting [12]), > 200 µg/mL; in series [6], > 200 µg/mL; in series [3] (setting [13]) it was < 0.04 µg/mL. In series [7], the “anti-herpes simplex (1 and 2) activity” value is “especially advantageous anti-herpes simplex (1 and 2) activity”. The MCC in series [4] (setting [14]) is > 200 µg/mL.
`O=c1[nH]c(=O)n([C@H]2C[C@H](O)[C@@H](CO)O2)cc1I` [IDU, 5-iodo-2'-deoxyuridine]: the EC50 in series [1] (setting [8]), in series [2] (setting [9]) and in series [3] (setting [10]) was 0.2 µg/mL (≈ 0.565 µM) in each case. Also, the “anti-viral activity against herpes viruses” value in series [5] is given as “dependent on a virus-specific thymidine kinase”. The MCC in series [4] was > 400 µg/mL.
